# From patent US12642870B2, “Compositions and methods for delivery of nucleic acids” (Poseida Therapeutics, Inc., priority 2020, dated 2026)
# Key:
# [1] = Physical characterisation of mRNA-containing LNPs (DLS, NTA, zeta potential); assay type: physicochemical; conditions: Fluc mRNA LNPs: compound/DOPE/Cholesterol/DMG-PEG2000 41.44/45.85/10/2.7, lipid:RNA 40:1 (w/w)
# Procedure: (§1) A series of ten multi-component LNP compositions of the present disclosure comprising exemplary compounds of Formula (I) was prepared by combining various percentages of an exemplary compound of Formula (I), the phospholipid DOPE, the structural lipid cholesterol (Chol) and 1,2-dimyristoyl-sn-glycerol methoxypolyethylene glycol (DMG-PEG2000; Avanti Polar Lipids, Alabaster, Alabama, USA).
# (§2) Individual 25 mg/ml stock solutions were prepared by solubilizing the lipids in 200-proof HPLC-grade ethanol and stock solutions were stored at −80° C. until formulated. At the time of formulation, the lipid stock solutions were briefly allowed to equilibrate to room temp and then placed on a hot plate maintained at a temperature range of 50-55° C.
# A 1 mg/mi solution of the desired mRNA to be incorporated into the LNPs was added to 150 mM sodium acetate buffer (pH 5.2) to form a stock solution and kept on ice. The lipid phase was mixed with the aqueous m RNA phase inside a microfluidic chip using a NanoAssemblr® instrument (Precision Nanosystems, Vancouver, BC, Canada) according to the manufacturer's instructions to form LNP compositions comprising encapsulated mRNAs.
# (§3) The resultant mRNA LNP compositions were then transferred to a Repligen Float-A-Lyzer dialysis device—having a molecular weight cut off (MWCO) of 8-10 kDa (Spectrum Chemical Mfg. Corp, CA, USA) and processed by dialysis against phosphate buffered saline (PBS) (dialysate:dialysis buffer volume at least 1:200 v/v), pH 7.4 overnight at 4° C. (or alternatively room temperature for at least 4 hours), to remove the 25% ethanol and achieve a complete buffer exchange. In some experiments the LNPs were further concentrated by in an Amicon® Ultra-4 centrifugal filter unit, MWCO-30 kDa (Millipore Sigma, USA) spun at ˜4100×g in an ultracentrifuge. The mRNA LNPs were then stored at 4° C. until further use.
# A series of multicomponent LNP compositions comprising one of COMPOUNDS 1-8 described in Example 1 and the mRNA encoding flue was prepared according to Example 2 and the physical characteristics of the resulting LNPs were analyzed.
# In a separate experiment, LNP compositions of the present disclosure comprising mRNA encoding firefly luciferase (hereafter “Fluc”; TriLink) and COMPOUNDS 1-8 were prepared as described in Example 2 by combining one of COMPOUNDS 1-8, the phospholipid DOPE, the structural lipid cholesterol (Chol) and 1,2-dimyristoyl-sn-glycerol methoxypolyethylene glycol (DMG-PEG2000) in the percentages presented in Table 8: […]
# [2] = Physical characterisation of DNA-containing LNPs (DLS, NTA, zeta potential); assay type: physicochemical; conditions: nano-pB-EF1a-GFP DNA LNPs: compound/DOPE/Cholesterol/DMG-PEG2000 38.0/50.0/10.0/2.0, lipid:DNA 45:1 (w/w)
# Procedure: LNP compositions of the present disclosure comprising DNA, a nanoplasmid encoding a piggyBac transposon, wherein the piggyBac transposon comprised GFP under control of the EF1a promoter (herein referred to as the nano-pB-EF1a-GFP), and one of COMPOUNDS 1-8 were prepared as described in Example 3 by combining one of COMPOUNDS 1-8, the phospholipid DOPE, the structural lipid cholesterol (Chol) and 1,2-dimyristoyl-sn-glycerol methoxypolyethylene glycol (DMG-PEG2000) in the following percentages in Table 20: […]
# BALB/C mice = assay: In vivo intramuscular LNP delivery of fLuciferase mRNA, bioluminescent imaging; conditions: intramuscular 20 μg fLuciferase mRNA, right hind limb, BLI at 4 hr; LNP compound/DOPE/Cholesterol/DMG-PEG2000 33.5/32.0/33.5/1.0, lipid:RNA 25:1
# Procedure: (§4) Adult female BALB/C mice (n=2/group) were intramuscularly administered in the right hind limb of each mouse 20 μg of 5′-CleanCap-fLuciferase mRNA (TriLink Biotech) formulated with LNP composition comprising COMPOUND 2 as prepared according to Example 2 in the following percentages shown in Table 16:
# The location and extent of luciferase expression in treated and untreated mice were determined at 4 hr and 24 hr by bioluminescent imaging (BLI) of anesthetized mice using an IVIS Lumina in vivo imaging system (Perkin Elmer) according to the manufacturer's instructions. Briefly, mice were anesthetized using isoflurane in oxygen, and placed supine on a heated stage. Mice were then administered D-luciferin (Perkin-Elmer #122799) IP, and BLI was performed.
# as §4, with “In another experiment, adult female” for “Adult female”, “comprising one of COMPOUNDS 3-8” for “comprising COMPOUND 2”, “Example 3” for “Example 2”, “Table 18:” for “Table 16:”
# The location and extent of luciferase expression in treated and untreated mice were determined at 4 hr by bioluminescent imaging (BLI) of anesthetized mice as described above.
# [3] = Particle size and PDI of hand-mixed mRNA or DNA LNPs; assay type: physicochemical; conditions: for PDI DNA / Particle Size (nm) DNA: hand-mixed DNA LNPs: compound/DOPE/Cholesterol/DMG-PEG2000 38/50/10.0/2.0, lipid:DNA 45:1; for PDI RNA / Particle Size (nm) RNA: hand-mixed mRNA LNPs: compound/DOPE/Cholesterol/DMG-PEG2000 41.44/45.85/10/2.7, lipid:RNA 40:1
# Procedure: as §1, with “LNP” for “A series of ten multi-component LNP”, “were” for “was”
# as §2
# A 1 mg/ml solution of the desired mRNA or DNA to be incorporated into the LNPs was added to 150 mM sodium acetate buffer (pH 5.2) to form a stock solution and kept on ice. The aqueous mRNA or DNA was then added to the lipids as shown in Table 25 or 26 and hand-mixed vigorously with a single channel pipettor.
# as §3, with “resultant mRNA or DNA LNP compositions” for “resultant mRNA LNP compositions”, “The mRNA and DNA LNPs were” for “The mRNA LNPs were”
# LNP compositions of the present disclosure comprising mRNA or DNA encoding firefly luciferase (hereafter “Flue”; TriLink) and COMPOUNDS 9-21 were prepared as described in Example 14 by combining one of COMPOUNDS 9-21, the phospholipid DOPE, the structural lipid cholesterol (Chol) and 1,2-dimyristoyl-sn-glycerol methoxypolyethylene glycol (DMG-PEG2000) in the percentages presented in Tables 27 and 28:
# The physical characteristics of the resulting LNPs were analyzed.
SMILES,PDI DNA [3],Particle Size (nm) DNA [3] [nm],PDI RNA [3],Particle Size (nm) RNA [3] [nm],also measured
CC(C)C(CCC(C)C(CCC1CC2C(=O)N(c3ccc(N4C(=O)C5CC(CCC(SCCN(C)C)C(C)CCC(SCCN(C)C)C(C)C)C(SCCN(C)C)CC5C4=O)cc3)C(=O)C2CC1SCCN(C)C)SCCN(C)C)SCCN(C)C (stereo not shown) [Compound 7],,,,,Diameter (DLS; nm) [1]: 123.5 nm; Diameter (NTA; nm) [1]: 108.4 nm; PDI [1]: 0.113; Total Particles/ml [1]: 5.10E+10 Particles/ml; Zeta Potential (mV) [1]: −0.29 mV; Diameter (DLS; nm) [2]: 110.2 nm; Diameter (NTA; nm) [2]: 90.8 nm; PDI [2]: 0.224; Total Particles/ml [2]: 5.52E+11 Particles/ml; Zeta Potential (mV) [2]: 0.96 mV; Avg IM flux n = 2 (BALB/C mice): 2.4E+5
CC(C)C(CCC(C)C(CCC1CCC(C(=O)NC2CCC(CC3CCC(NC(=O)C4CCC(CCC(SCCN(C)C)C(C)CCC(SCCN(C)C)C(C)C)C(SCCN(C)C)C4)CC3)CC2)CC1SCCN(C)C)SCCN(C)C)SCCN(C)C (stereo not shown) [Compound 5],,,,,Diameter (DLS; nm) [1]: 91.8 nm; Diameter (NTA; nm) [1]: 84.4 nm; PDI [1]: 0.389; Total Particles/ml [1]: 7.03E+10 Particles/ml; Zeta Potential (mV) [1]: 0.18 mV; Diameter (DLS; nm) [2]: 82.0 nm; Diameter (NTA; nm) [2]: 85.8 nm; PDI [2]: 0.168; Total Particles/ml [2]: 2.31E+11 Particles/ml; Zeta Potential (mV) [2]: 0.21 mV; Avg IM flux n = 2 (BALB/C mice): 2.12E+5
CC(C)C(CCC1CCC(C(=O)OCCCCCCOC(=O)C2CCC(CCC(SCCN(C)C)C(C)C)C(SCCN(C)C)C2)CC1SCCN(C)C)SCCN(C)C (stereo not shown) [Compound 14],0.272,392.2,0.249,222.5,
CC(C)C(CCC1CCC(C(=O)OCCCCCCCCCCCCOC(=O)C2CCC(CCC(SCCN(C)C)C(C)C)C(SCCN(C)C)C2)CC1SCCN(C)C)SCCN(C)C (stereo not shown) [Compound 15],0.201,375.6,0.208,267.1,
CC(C)C(CCC(C)C(CCC1CCC(C(=O)OCCCCCCCCCCCCOC(=O)C2CCC(CCC(SCCN(C)C)C(C)CCC(SCCN(C)C)C(C)C)C(SCCN(C)C)C2)CC1SCCN(C)C)SCCN(C)C)SCCN(C)C (stereo not shown) [Compound 11],0.366,511.8,0.156,270.4,
CC(C)C(CCC1CCC(C(=O)OCCCCCCCCCCCCCCCCCCCCOC(=O)C2CCC(CCC(SCCN(C)C)C(C)C)C(SCCN(C)C)C2)CC1SCCN(C)C)SCCN(C)C (stereo not shown) [Compound 16],0.277,149.8,0.327,188.8,
CC(C)C(CCC1CCC(C(=O)OCCCCCCSCCCCCCCCSCCCCCCOC(=O)C2CCC(CCC(SCCN(C)C)C(C)C)C(SCCN(C)C)C2)CC1SCCN(C)C)SCCN(C)C (stereo not shown) [Compound 21],0.230,161.1,0.273,144.9,
CC(C)C(CCC1CC2C(=O)N(c3ccc(N4C(=O)C5CC(CCC(SCCN(C)C)C(C)C)C(SCCN(C)C)CC5C4=O)cc3)C(=O)C2CC1SCCN(C)C)SCCN(C)C (stereo not shown) [Compound 8],,,,,Avg IM flux n = 2 (BALB/C mice): 8.31E+4
CC(C)C(CCC(C)C(CCC1CCC(C(=O)OCCCCCCSCCCCCCCCSCCCCCCOC(=O)C2CCC(CCC(SCCN(C)C)C(C)CCC(SCCN(C)C)C(C)C)C(SCCN(C)C)C2)CC1SCCN(C)C)SCCN(C)C)SCCN(C)C (stereo not shown) [Compound 20],0.189,229.6,0.211,221.0,
CC(C)C(CCC(C)C(CCC1CCC(C(=O)OCCCCCCCCCCCCCCCCCCCCOC(=O)C2CCC(CCC(SCCN(C)C)C(C)CCC(SCCN(C)C)C(C)C)C(SCCN(C)C)C2)CC1SCCN(C)C)SCCN(C)C)SCCN(C)C (stereo not shown) [Compound 12],0.251,228.0,0.216,162.7,
CC(C)C(CCC(C)C(CCC1CCC(C(=O)OCCCCCCOC(=O)C2CCC(CCC(SCCN(C)C)C(C)CCC(SCCN(C)C)C(C)C)C(SCCN(C)C)C2)CC1SCCN(C)C)SCCN(C)C)SCCN(C)C (stereo not shown) [Compound 10],0.403,291.2,0.120,254.1,
